Reference: patent US10336774B2, “N-azaspirocycloalkane substituted N-heteroaryl compounds and compositions for inhibiting the activity of SHP2” (NOVARTIS AG, priority 2014, dated 2019)

What follows are compounds tested against SHP2 (Homo sapiens (Human), UniProt Q06124) (assay: SHP2 Allosteric Inhibition Assay). Details: 0.5 nM SHP2 activated with 0.5 μM peptide IRS1_pY1172(dPEG8)pY1222, surrogate substrate DiFMUP, fluorescence.
Type: biochemical
Source text: SHP2 Allosteric Inhibition Assay SHP2 is allosterically activated through binding of bis-tyrosyl-phorphorylated peptides to its Src Homology 2 (SH2) domains. The latter activation step leads to the release of the auto-inhibitory interface of SHP2, which in turn renders the SHP2 protein tyrosine phosphatase (PTP) active and available for substrate recognition and reaction catalysis. The catalytic activity of SHP2 was monitored using the surrogate substrate DiFMUP in a prompt fluorescence assay format. […] After 30-60 minutes incubation at 25° C., the surrogate substrate DiFMUP (Invitrogen, cat# D6567) was added to the reaction and incubated at 25° C. for 30 minutes. […] The inhibitor dose response curves were analyzed using normalized IC50 regression curve fitting with control based normalization.

Chain of SHP2 (Q06124 whole entry): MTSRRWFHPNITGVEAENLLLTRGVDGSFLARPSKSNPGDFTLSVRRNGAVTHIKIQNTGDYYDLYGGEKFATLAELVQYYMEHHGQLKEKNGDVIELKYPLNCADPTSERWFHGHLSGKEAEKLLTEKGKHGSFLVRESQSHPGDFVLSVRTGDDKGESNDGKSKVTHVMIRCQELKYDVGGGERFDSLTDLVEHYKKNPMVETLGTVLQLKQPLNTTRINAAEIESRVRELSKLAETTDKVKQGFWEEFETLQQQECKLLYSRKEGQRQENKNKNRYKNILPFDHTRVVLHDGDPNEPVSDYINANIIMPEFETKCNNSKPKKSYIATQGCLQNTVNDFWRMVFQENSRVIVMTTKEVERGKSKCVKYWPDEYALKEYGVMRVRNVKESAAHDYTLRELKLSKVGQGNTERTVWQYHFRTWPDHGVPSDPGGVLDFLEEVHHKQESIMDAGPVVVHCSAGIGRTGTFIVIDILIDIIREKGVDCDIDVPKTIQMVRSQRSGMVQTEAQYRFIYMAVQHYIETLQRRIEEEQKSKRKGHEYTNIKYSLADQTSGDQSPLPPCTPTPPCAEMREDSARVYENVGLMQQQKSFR

`Nc1nc(N2CCC3(CC2)C[C@H](O)C[C@H]3N)cnc1Sc1ccnc(Cl)c1Cl` [Example 57] and `Nc1nc(N2CCC3(CC2)C[C@@H](O)C[C@H]3N)cnc1Sc1ccnc(Cl)c1Cl` [Example 58] are within 1.5-fold of each other in IC50: 3 nM for the first, 4 nM for the second.

First: CO[C@H]1C[C@@H](N)C2(CCN(c3cnc(Sc4ccnc(N)c4Cl)c(N)n3)CC2)C1 [Example 59]
Second: CO[C@H]1C[C@@H](N)C2(CCN(c3cnc(Sc4ccnc(Cl)c4Cl)c(N)n3)CC2)C1 [Example 60]
The IC50 of the first is 2.5-fold higher: 10 nM for the first, 4 nM for the second.

First: C[C@@H]1C[C@@H](N)C2(CCN(c3cnc(Sc4cccnc4C(F)(F)F)c(N)n3)CC2)C1 [Example 61]
Second: C[C@@H]1C[C@H](N)C2(CCN(c3cnc(Sc4cccnc4C(F)(F)F)c(N)n3)CC2)C1 [Example 62]
The IC50 of the first is 14-fold lower: 7 nM for the first, 100 nM for the second.

First: Nc1nc(N2CCC3(CC2)COC[C@H]3N)cnc1Sc1ccnc(Cl)c1Cl [Example 63]
Second: Nc1nc(N2CCC3(CC2)COC[C@H]3N)cnc1Sc1ccnc(F)c1Cl [Example 64]
The IC50 of the first is 1.9-fold lower: 7 nM for the first, 13 nM for the second.

Compared with `Nc1nc(N2CCC3(CCC[C@H]3N)CC2)cnc1Sc1cc(F)ncc1Cl` [Example 65], `Nc1nc(N2CCC3(CCC[C@H]3N)CC2)cnc1Sc1ccnnc1Cl` [Example 76] is 4-fold lower in IC50: 310 nM for the first, 78 nM for the second.

Compared with `CC(C)C(=O)O[C@@H]1C[C@@H](N)C2(CCN(c3cnc(Sc4ccnc(Cl)c4Cl)c(N)n3)CC2)C1` [Example 66], `C[C@H]1C[C@@H](N)C2(CCN(c3cnc(Sc4ccnc(N)c4Cl)c(N)n3)CC2)C1` [Example 70, (1R,3R)-8-(6-amino-5-((2-amino-3-chloropyridin-4-yl)thio)pyrazin-2-yl)-3-methyl-8-azaspiro[4.5]decan-1-amine] is 13-fold lower in IC50: 65 nM for the first, 5 nM for the second. The second is the more potent here.

`Nc1nc(N2CCC3(CC2)CC(F)(F)C[C@H]3N)cnc1Sc1ccnc(N)c1Cl` [Example 67] and `Nc1nc(N2CCC3(CC2)C[C@@H](F)C[C@H]3N)cnc1Sc1ccnc(N)c1Cl` [Example 91] are within 1.5-fold of each other in IC50: 10 nM for the first, 8 nM for the second.

Going from `C[C@@H]1C[C@@H](N)C2(CCN(c3cnc(Sc4ccnc(N)c4Cl)c(N)n3)CC2)C1` [Example 71, (1R,3S)-8-(6-amino-5-((2-amino-3-chloropyridin-4-yl)thio)pyrazin-2-yl)-3-methyl-8-azaspiro[4.5]decan-1-amine] to `Nc1nc(N2CCC3(CC2)C[C@H](F)C[C@H]3N)cnc1Sc1ccnc(N)c1Cl` [Example 92], the IC50 rises from 5 nM to 10 nM (2-fold).

Compared with `NC1=NCC2(CCN(c3cnc(Sc4cccnc4C(F)(F)F)c(N)n3)CC2)O1` [Example 72, 8-(6-amino-5-((2-(trifluoromethyl)pyridin-3-yl)thio)pyrazin-2-yl)-1-oxa-3,8-diazaspiro[4.5]dec-2-en-2-amine], `NC1=NC2(CCN(c3cnc(Sc4cccnc4C(F)(F)F)c(N)n3)CC2)CO1` [Example 74] is 3.4-fold lower in IC50: 193 nM for the first, 56 nM for the second. The second is the more potent here.

First: NC1=NC2(CCN(c3cnc(Sc4ccnc(Cl)c4Cl)c(N)n3)CC2)CO1 [Example 73]
Second: Nc1cc(Sc2ncc(N3CCC4(CC3)COC[C@H]4N)nc2N)c(Cl)c(Cl)n1 [Example 89]
The IC50 of the first is 1.7-fold higher: 20 nM for the first, 11.8 nM for the second.

Going from `CN(C)c1nccc(Sc2ncc(N3CCC4(CCC[C@H]4N)CC3)nc2N)c1Cl` [Example 75, (R)-8-(6-amino-5-((3-chloro-2-(dimethylamino)pyridin-4-yl)thio)pyrazin-2-yl)-8-azaspiro[4.5]decan-1-amine] to `COc1nccc(Sc2ncc(N3CCC4(CCC[C@H]4N)CC3)nc2N)c1Cl` [Example 78], the IC50 rises from 10 nM to 15 nM (1.5-fold). The first is the more potent here.

Going from `Nc1nc(N2CCC3(CCC[C@H]3N)CC2)cnc1Sc1ccncc1C(F)(F)F` [Example 80] to `Nc1nc(N2CCC3(CCC[C@H]3N)CC2)cnc1Sc1cc[nH]c(=O)c1Cl` [Example 81, (R)-4-((3-amino-5-(1-amino-8-azaspiro[4.5]decan-8-yl)pyrazin-2-yl)thio)-3-chloropyridin-2(1H)-one], the IC50 falls from 42 nM to 20 nM (2.1-fold).

Going from `Nc1cc(Sc2ncc(N3CCC4(CCC[C@H]4N)CC3)nc2N)c(Cl)c(Cl)n1` [Example 87] to `Nc1cc(Sc2ncc(N3CCC4(CC3)C[C@H](O)C[C@H]4N)nc2N)c(Cl)c(Cl)n1` [Example 90], the IC50 falls from 9.3 nM to 4 nM (2.3-fold). The second is the more potent here.

For `C[C@@H]1OCC2(CCN(c3cnc(Sc4cc(N)nc(Cl)c4Cl)c(N)n3)CC2)[C@@H]1N` [Example 88], the IC50 was 4 nM.

Same assay, conditions: unit given as M; TFA salt before chiral separation

For `CC1CCC2(CCN(c3cnc(Sc4cccnc4C(F)(F)F)c(N)n3)CC2)[C@@H]1N` (stereo partly drawn) [Example 86a/b, (1R)-8-(6-amino-5-((2-(trifluoromethyl)pyridin-3-yl)thio)pyrazin-2-yl)-2-methyl-8-azaspiro[4.5]decan-1-amine], the IC50 was 1 nM.
